Test results reported in patent US8697730B2, “5-lipoxygenase activating protein (FLAP) inhibitor” (Panmira Pharmaceuticals, LLC, priority 2007, dated 2014).
Each block holds one compound with its values, some of them ahead of it.

Columns and labels:
[1] = Gravimetric Vapor Sorption (GVS); details: 25° C.; for hygroscopicity in words: GVS; for total weight change: between 0% RH and 90% RH
[2] = Aqueous solubility determination (thermodynamic solubility); details: for Appearance of mixture after equilibration for 24 hours: suspended in 0.25 mL of water, 25° C.; for pH of saturated solution / Concentration of filtrate (as mg/ml of free base): water, equilibrated at 25° C. for 24 hours; for Concentration of filtrate (as mg/ml of free base): HPLC
[3] = test system: allergen-induced early and late phases of lung-volume decline; details: clinical trials / allergen-challenge studies; cited from earlier work
[4] = test system: whole blood ionophore-stimulated leukotriene LTB4; test: Phase 1 study, whole blood ionophore-stimulated LTB4; assay type: in vivo, human
Procedure: (§1) Pharmacodynamics: Whole blood ionophore-stimulated leukotriene LTB4 and urinary LTE4 production are assayed by ELISA and mass spectrometry, respectively.
(§2) Obtain pre-dose fasting blood samples for hematology determinations. Obtain pre-dose fasting blood samples for serum chemistry determinations. Obtain pre-dose blood samples (5 mL EDTA and 4 mL heparinized) for baseline PK and LTB4. Collect ‘spot’ urine prior to study drug administration for baseline (pre-dose) LTE4. Administer study drug. […] Collect blood samples (2 mL heparinized) for LTB4 at 0.5, 1, 2, 3, 4, 6, 8, and 12 hours. Collect urine for LTE4 for the following separate intervals: 0-3, 3-6, 6-9, and 9-12 hours. For twice daily dosing group (if conducted): administer study drug 12 hours±30 minutes after prior dose, preceded by ≧2 hours fast.
(§3) Obtain pre-dose fasting blood samples for hematology determinations. Obtain pre-dose fasting blood samples for serum chemistry determinations. […] Collect blood samples (2 mL heparinized) for LTB4 at 24 hours after the first study drug administration; 4 mL blood will be collected at this time point in the Single Dose Phase. Collect ‘spot’ urine sample for LTE4 at 24 and 36 hours after first study drug administration.
(§4) Obtain pre-dose blood samples (5 mL EDTA and 2 mL heparinized) for PK and LTB4. Collect pre-dose urine for LTE4. Administer study drug (last dose of drug). […] Collect blood samples (2 mL heparinized) for LTB4 at 0.5, 1, 2, 3, 4, 6, 8, and 12 hours. Collect urine for LTE4 for the following separate intervals: 0-3, 3-6, 6-9, and 9-12 hours after study drug administration.
(§5) Record vital signs 24 hours after Day 11 study drug administration. […] Collect blood sample (4 mL heparinized) for LTB4 at 24 hours after Day 11 study drug administration. Collect ‘spot’ urine sample for LTE4 at 24 hours after Day 11 study drug administration.
(§6) Whole blood ionophore-stimulated leukotriene LTB4 and urinary LTE4 production were assayed by ELISA and mass spectrometry, respectively.

urinary LTE4 production = test: Phase 1 study, urinary LTE4; assay type: in vivo, human
Procedure: as §1, §2, §3, §4, §5, §6

CYP3A4 = CYP3A4 (Homo sapiens, UniProt P08684); details: microsomes
CYP2C9 [5] = target: CYP2C9 (Homo sapiens, UniProt P11712); details: microsomes
CYP2C19 = CYP2C19 (Homo sapiens, UniProt P33261); details: microsomes
CYP2D6 = CYP2D6 (Homo sapiens, UniProt P10635); details: microsomes
CYP1A2 = target: T1, CYP1A2 (Homo sapiens, UniProt P05177)
T1 sequence (P05177 1-516): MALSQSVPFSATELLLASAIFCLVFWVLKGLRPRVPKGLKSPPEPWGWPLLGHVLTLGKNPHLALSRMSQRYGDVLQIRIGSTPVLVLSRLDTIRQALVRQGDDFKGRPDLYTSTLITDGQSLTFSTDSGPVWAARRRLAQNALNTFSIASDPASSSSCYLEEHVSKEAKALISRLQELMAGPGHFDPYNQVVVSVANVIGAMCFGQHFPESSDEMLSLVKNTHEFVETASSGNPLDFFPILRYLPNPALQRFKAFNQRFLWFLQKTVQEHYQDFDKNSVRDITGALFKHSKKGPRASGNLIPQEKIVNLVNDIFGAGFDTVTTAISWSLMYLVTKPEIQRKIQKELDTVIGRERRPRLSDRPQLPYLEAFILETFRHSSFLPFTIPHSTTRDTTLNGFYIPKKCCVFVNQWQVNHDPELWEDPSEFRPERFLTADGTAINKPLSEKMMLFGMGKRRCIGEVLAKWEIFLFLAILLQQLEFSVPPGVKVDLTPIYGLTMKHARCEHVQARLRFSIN

CYP2C9 [6] = details: tested at 10 μM; diclofenac substrate
pH solubility profile = assay type: physicochemical; details: about 25° C.
[7] = Storage stability of polymorphs; assay type: physicochemical; details: for change after 1 week storage (crystallinity / x-ray powder diffraction pattern, colour): 1 week at 40° C. and 75% RH
chronic asthma = chronic asthma studies; cited from earlier work
[8] = Examination of liver weight change in mice; details: oral 250 mg/kg daily for 4 days, compared with vehicle control
Procedure: Twenty-four hours following the final administration mice were placed into an enclosed Plexiglas chamber and exposed to CO2 for a period of 1-2 minutes or until breathing ceased. They were then removed and blood was taken via a cardiac puncture and cervical dislocation was performed. Subjects were next placed in a supine position and a midline incision made. All organs were inspected and the livers removed by careful dissection. Liver weights were recorded as well as any gross abnormalities.

[9] = profile that may be obtained from a single dose administration to a human, dose not stated
[10] = Cycle 1, Scan 1, Adsorption, % RH load to 40
[11] = Cycle 1, Scan 2, Adsorption, % RH 0 to 40
[12] = Cycle 1, Scan 2, Adsorption, % RH 40 to 90
[13] = Cycle 1, Scan 2, Desorption, % RH 90 to 0
[14] = Cycle 2, Scan 3, Adsorption, % RH 40 to 90
[15] = Cycle 2, Scan 4, Adsorption, % RH 0 to 40
[16] = Cycle 2, Scan 4, Desorption, % RH 90 to 0

Chain of CYP3A4 (P08684 whole entry): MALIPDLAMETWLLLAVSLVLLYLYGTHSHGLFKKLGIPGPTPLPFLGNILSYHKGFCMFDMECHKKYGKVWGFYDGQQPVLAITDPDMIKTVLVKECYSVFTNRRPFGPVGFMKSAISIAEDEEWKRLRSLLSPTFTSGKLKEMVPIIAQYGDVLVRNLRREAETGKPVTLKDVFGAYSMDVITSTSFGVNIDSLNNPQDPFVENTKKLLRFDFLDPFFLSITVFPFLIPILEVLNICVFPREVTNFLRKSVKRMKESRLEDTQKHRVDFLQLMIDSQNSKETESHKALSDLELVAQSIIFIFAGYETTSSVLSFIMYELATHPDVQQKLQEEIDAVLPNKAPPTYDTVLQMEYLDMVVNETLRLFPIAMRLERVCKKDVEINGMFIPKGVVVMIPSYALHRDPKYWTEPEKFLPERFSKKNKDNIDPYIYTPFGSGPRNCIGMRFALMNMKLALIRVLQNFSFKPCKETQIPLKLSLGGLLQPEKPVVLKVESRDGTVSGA
Chain of CYP2D6 (P10635 whole entry): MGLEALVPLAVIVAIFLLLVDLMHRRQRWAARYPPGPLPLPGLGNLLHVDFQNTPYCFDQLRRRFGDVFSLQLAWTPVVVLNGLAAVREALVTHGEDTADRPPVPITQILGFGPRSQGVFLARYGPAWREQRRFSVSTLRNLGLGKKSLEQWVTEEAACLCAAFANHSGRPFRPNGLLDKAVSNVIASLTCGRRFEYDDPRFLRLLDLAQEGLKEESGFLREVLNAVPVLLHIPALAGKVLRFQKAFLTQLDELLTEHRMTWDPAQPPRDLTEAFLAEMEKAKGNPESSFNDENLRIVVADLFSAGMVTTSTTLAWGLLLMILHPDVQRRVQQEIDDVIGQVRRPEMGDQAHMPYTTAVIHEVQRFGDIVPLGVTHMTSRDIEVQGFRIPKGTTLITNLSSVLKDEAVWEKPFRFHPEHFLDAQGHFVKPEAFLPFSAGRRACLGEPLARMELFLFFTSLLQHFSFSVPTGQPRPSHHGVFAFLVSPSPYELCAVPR
Chain of CYP2C9 (Homo sapiens, UniProt P11712) (P11712 whole entry): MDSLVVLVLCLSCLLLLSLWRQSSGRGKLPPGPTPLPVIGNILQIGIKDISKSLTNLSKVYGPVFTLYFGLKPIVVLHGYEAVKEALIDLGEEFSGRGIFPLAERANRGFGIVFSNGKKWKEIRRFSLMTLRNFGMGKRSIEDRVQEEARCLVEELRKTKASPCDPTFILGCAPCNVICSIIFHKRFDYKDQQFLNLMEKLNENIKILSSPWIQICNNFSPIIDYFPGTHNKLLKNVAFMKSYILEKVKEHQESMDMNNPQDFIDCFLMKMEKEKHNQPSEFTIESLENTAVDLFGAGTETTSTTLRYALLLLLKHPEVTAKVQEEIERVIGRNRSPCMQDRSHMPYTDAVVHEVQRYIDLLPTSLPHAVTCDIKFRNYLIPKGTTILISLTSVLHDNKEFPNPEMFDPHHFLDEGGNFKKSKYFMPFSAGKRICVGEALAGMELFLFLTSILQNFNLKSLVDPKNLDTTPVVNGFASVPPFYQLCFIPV
Chain of CYP2C19 (P33261 whole entry): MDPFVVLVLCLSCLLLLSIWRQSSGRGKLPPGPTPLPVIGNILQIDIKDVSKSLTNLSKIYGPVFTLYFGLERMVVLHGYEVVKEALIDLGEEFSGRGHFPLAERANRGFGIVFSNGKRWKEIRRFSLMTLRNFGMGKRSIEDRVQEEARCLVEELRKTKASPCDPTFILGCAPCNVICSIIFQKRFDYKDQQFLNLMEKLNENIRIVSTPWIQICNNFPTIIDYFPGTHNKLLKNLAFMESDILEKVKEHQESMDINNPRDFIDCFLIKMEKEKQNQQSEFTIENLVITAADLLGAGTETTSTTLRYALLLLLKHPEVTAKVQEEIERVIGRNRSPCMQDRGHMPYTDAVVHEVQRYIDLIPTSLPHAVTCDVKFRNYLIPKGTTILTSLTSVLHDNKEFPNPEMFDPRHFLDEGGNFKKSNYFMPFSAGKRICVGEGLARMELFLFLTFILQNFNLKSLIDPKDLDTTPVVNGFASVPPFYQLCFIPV

stability to changes in humidity (XRPD after GVS experiment) [1]: stable to changes in humidity
% weight change ([1]; Cycle 1, Scan 1, Adsorption, % RH load to 40, listed as crystalline 3-[5-(pyridin-2-ylmethoxy)-3-(2-methyl-2-propylthio)-1-[4-(2-methoxy)): 0.00%
% weight change ([1]; Cycle 1, Scan 2, Adsorption, % RH 0 to 40, listed as crystalline 3-[5-(pyridin-2-ylmethoxy)-3-(2-methyl-2-propylthio)-1-[4-(2-methoxy)): 0.07%
% weight change ([1]; Cycle 1, Scan 2, Adsorption, % RH 40 to 90, listed as crystalline 3-[5-(pyridin-2-ylmethoxy)-3-(2-methyl-2-propylthio)-1-[4-(2-methoxy)): 0.34%
% weight change ([1]; Cycle 1, Scan 2, Desorption, % RH 90 to 0, listed as crystalline 3-[5-(pyridin-2-ylmethoxy)-3-(2-methyl-2-propylthio)-1-[4-(2-methoxy)): −0.42%
% weight change ([1]; Cycle 2, Scan 3, Adsorption, % RH 40 to 90, listed as crystalline 3-[5-(pyridin-2-ylmethoxy)-3-(2-methyl-2-propylthio)-1-[4-(2-methoxy)): 0.29%
% weight change ([1]; Cycle 2, Scan 4, Adsorption, % RH 0 to 40, listed as crystalline 3-[5-(pyridin-2-ylmethoxy)-3-(2-methyl-2-propylthio)-1-[4-(2-methoxy)): 0.08%
% weight change ([1]; Cycle 2, Scan 4, Desorption, % RH 90 to 0, listed as crystalline 3-[5-(pyridin-2-ylmethoxy)-3-(2-methyl-2-propylthio)-1-[4-(2-methoxy)): −0.40%
hygroscopicity in words ([1]; listed as Crystalline 3-[5-(pyrid-2-ylmethoxy)-3-(2-methyl-2-propylthio)-1-[4-(2-methoxypy)): not hygroscopic
Appearance of mixture after equilibration for 24 hours [2]: Suspension
pH of saturated solution [2]: 7.88
Concentration of filtrate (as mg/ml of free base) [2]: 0.0019 mg/mL
Compound: COc1ccc(-c2ccc(Cn3c(CC(C)(C)C(=O)O)c(SC(C)(C)C)c4cc(OCc5ccccn5)ccc43)cc2)cn1 [Crystalline Free Acid]

Compound: O=C(O)[C@@H](c1ccc(OCc2ccc3ccccc3n2)cc1)C1CCCC1 [BAYX-1005, (R)-2-[4-(quinolin-2-yl-methoxy)phenyl]-2-cyclopentyl acetic acid]
efficacy in words [3]: shown efficacy

IC50 (CYP3A4; human, pH 7.4): > 50 µM
inhibition in words (CYP3A4): No apparent inhibition
inhibition in words (CYP2C9 [5]): No apparent inhibition
inhibition in words (CYP2C19): weakly inhibited
inhibition in words (CYP2D6): No apparent inhibition
inhibition in words (CYP1A2): No apparent inhibition
CYP2C9 induction in words (CYP2C9 [6]): No apparent induction
Compound: COc1ccc(-c2ccc(Cn3c(CC(C)(C)C(=O)O)c(SC(C)(C)C)c4cc(OCc5ccccn5)ccc43)cc2)cn1 [sodium 3-[5-(pyrid-2-ylmethoxy)-3-(2-methyl-2-propylthio)-1-] [sodium 3-[5-(pyridin-2-ylmethoxy)-3-(2-methyl-2-propylthio)-1-[4-(2-methoxypyridin-5-yl)benzyl]-indol-2-yl]-2,2-dimethyl-propionate]
inhibition of blood LTB4 levels at 8 hours (Ionophore Challenge) [4, 9]: ≥ 80%
inhibition of blood LTB4 levels at 24 hours (Ionophore Challenge) [4, 9]: ≥ 30%
inhibition of urinary LTE4 levels at 24 hours (urinary LTE4 production; [9]): ≥ 80%

Compound: CC(C)c1ccc2c(c1)c(SC(C)(C)C)c(CC(C)(C)C(=O)O)n2Cc1ccc(Cl)cc1 [MK-866, 3-[1-(4-chlorobenzyl)-3-(tert-butylthio)-5-(isopropyl)-indol-2-yl]-2,2-dimethyl propanoic acid]
efficacy in words [3]: shown efficacy

Concentration (mg/mL) (pH solubility profile; pH about 1.1): about 0.690 mg/mL
Concentration (mg/mL) (pH solubility profile; pH about 4.9): about 0.0594 mg/mL
Concentration (mg/mL) (pH solubility profile; pH about 8.8): about 0.00573 mg/mL
Concentration (mg/mL) (pH solubility profile; pH about 9.2): about 9.80 mg/mL
Concentration (mg/mL) (pH solubility profile; pH about 9.8): about 53.1 mg/mL
Concentration (pH solubility profile; pH about 10.4): >70000 µg/mL
physical and chemical stability ([7]; conditions not stated): physically and chemically stable
stability to changes in humidity (XRPD after GVS experiment) [1]: stable to changes in humidity
% weight change [1, 10]: −1.54%
% weight change [1, 11]: 3.73%
% weight change [1, 12]: 20.92%
% weight change [1, 13]: −25.51%
% weight change [1, 14]: 20.72%
% weight change [1, 15]: 3.66%
% weight change [1, 16]: −24.45%
hygroscopicity in words [1]: very hygroscopic
total weight change [1]: 26%
Appearance of mixture after equilibration for 24 hours [2]: Fine Suspension
pH of saturated solution [2]: 9.95
Concentration of filtrate (as mg/ml of free base) [2]: 5.4 mg/mL
Compound: COc1ccc(-c2ccc(Cn3c(CC(C)(C)C(=O)O)c(SC(C)(C)C)c4cc(OCc5ccccn5)ccc43)cc2)cn1 [Form B]
change after 1 week storage (crystallinity / x-ray powder diffraction pattern, colour) [7]: loses its crystallinity and the colour changes to yellow

CYP2C9 induction in words (CYP2C9 [6]): not an inducer
Compound: COc1ccc(-c2ccc(Cn3c(CC(C)(C)C(=O)O)c(SC(C)(C)C)c4cc(OCc5ccccn5)ccc43)cc2)cn1 [3-[5-(pyridin-2-ylmethoxy)-3-(2-methyl-2-propylthio)-1-[4-(2]

Compound: COc1ccc(-c2ccc(Cn3c(CC(C)(C)C(=O)O)c(SC(C)(C)C)c4cc(OCc5ccccn5)ccc43)cc2)cn1
effect on LTB4 levels in humans, in words ([4]; clinical trial summary): lowers
effect on LTE4 levels in humans, in words (urinary LTE4 production; clinical trial summary): lowers

liver weight alteration [8]: 36.0%
Compound: CC(c1cc2ccccc2s1)N(O)C(N)=O (stereo not drawn) [Zileuton]
efficacy in words [3]: not effective
efficacy in words (chronic asthma): exhibited clinical efficacy

change after 1 week storage (crystallinity / x-ray powder diffraction pattern, colour) [7]: No change
physical and chemical stability ([7]; 5° C., 25° C./60% RH and 40° C./75% RH for at least two months): physically and chemically stable
stability to changes in humidity (XRPD after GVS experiment) [1]: stable to changes in humidity
% weight change [1, 10]: −0.37%
% weight change [1, 11]: 1.98%
% weight change [1, 12]: 13.83%
% weight change [1, 13]: −16.23%
% weight change [1, 14]: 14.52%
% weight change [1, 15]: 2.01%
% weight change [1, 16]: −16.51%
hygroscopicity in words [1]: hygroscopic
total weight change [1]: 16%
Appearance of mixture after equilibration for 24 hours [2]: Fine Suspension
pH of saturated solution [2]: 10.05
Concentration of filtrate (as mg/ml of free base) [2]: >10 mg/mL
Compound: COc1ccc(-c2ccc(Cn3c(CC(C)(C)C(=O)O)c(SC(C)(C)C)c4cc(OCc5ccccn5)ccc43)cc2)cn1 [Form C]
aqueous solubility compared between forms [2]: more soluble than Form B and the crystalline free acid

Compound: CC(C)(C)Sc1c(CC(C)(C)C(=O)O)n(Cc2ccc(Cl)cc2)c2ccc(OCc3ccc4ccccc4n3)cc12 [MK-0591, 3-[1-(4-chlorobenzyl)-3-(tert-butylthio)-5-(quinolin-2-ylmethoxy)indol-2-yl]-2,2-dimethyl propanoic acid]
efficacy in words [3]: shown efficacy
efficacy in words (chronic asthma): shown efficacy
